Results as given in US20260355177A1, “TREATMENT FOR APLASTIC ANEMIA (AA)” (ZYDUS LIFESCIENCES LIMITED, priority 2022, published 2026).

Tests used:
[1] = system: cyclophosphamide-induced aplastic anemia in C57 mice; experiment: Cyclophosphamide-induced aplastic anemia in C57 mice: white blood cell (WBC) and platelet count; assay type: in vivo; details: after 11 days of treatment; Formula (Ia) 15 mg/kg PO daily; Romiplostim 30 μg/kg SC once a week; mean±SEM, n=6
Protocol: Aplastic anemia (AA) was induced in C57 mice by administration of cyclophosphamide. Cyclophosphamide was dissolved in deionized water at concentrations of 20 mg/mL. Immediately before administration, deionized water was added to the stock solution and the solution was given by intraperitoneal (ip) injection at dose of 100 mg/kg. Mice were dosed with vehicle or cyclophosphamide for 4 days. Control mice were given vehicle at the same dose volume.^10 Compound of formula (Ia) (15 mg/kg, PO, daily) and Romiplostim (30 μg/kg, SC, once a week) combination were administered.
Blood was collected from each group after 11 days of treatment. The changes in the white blood cell (WBC) and platelet count were measured. Data are mean±SEM (n=6 for each group).

[2] = system: busulphan-induced aplastic anemia in Balb/c mice; experiment: Busulphan-induced aplastic anemia in Balb/c mice: white blood cell (WBC) and platelet count; assay type: in vivo; details: after 44 days of treatment; Formula (Ia) 15 mg/kg PO daily; Romiplostim 50 μg/kg SC once a week; mean±SEM, n=6
Protocol: Aplastic anemia (AA) was induced in BALB/c mice by administration of busulphan (BU). BU was dissolved in acetone at concentrations of 5-10 mg/mL. Immediately before administration, deionized water was added to the BU-acetone solution and the solution was given by intraperitoneal (ip) injection at dose of 9 mg/kg. Control mice were given vehicle at the same dose volume.^9 Compound of formula (Ia) (15 mg/kg, PO, daily) and Romiplostim (50 μg/kg, SC, once a week) combination were administered.
Mice were be dosed with vehicle or BU on 10 occasions over a period of 21 days (days 1, 3, 6, 8, 10, 13, 15, 17, 19 and 21). Between 1 to 127 days after the final BU dose, mice from each group were autopsied for blood.^9
The changes in the white blood cell (WBC) and platelet count were measured after 44 days of treatment. Data are mean±SEM (n=6 for each group).

Compound | Platelets [1] | Platelets % Change against vehicle control [1] [%] | WBC [1] | WBC % Change against vehicle control [1] [%] | Platelets [2] | Platelets % Change against vehicle control [2] [%] | WBC [2] | WBC % Change against vehicle control [2] [%]
O=C(O)CNC(=O)c1c(O)c2ccccc2n(OCC2CC2)c1=O [Formula (Ia)] | 742.3 10^3/uL | 32.1 | 7.0 10^3/uL | 10.1 | 676.2 10^3/uL | 30.6 | 2.6 10^3/uL | 10.9
Romiplostim | – | – | – | – | 1257.0 10^3/uL | 142.7 | 4.2 10^3/uL | 79.3
